Results from ChEMBL document CHEMBL3885881, “DrugMatrix”.

Species: Rattus norvegicus
Test: DrugMatrix - Regimen: Daily Repeat
Type: toxicity, organism-based, Sprague-Dawley
Parameters: regimen Daily Repeat, gender Male, age 6-8 weeks
Conditions: in vivo, po, route oral GAVAGE, vehicle .5 % CMC; for BASOPHIL / EOSINOPHIL / ERYTHROCYTE COUNT / HEMATOCRIT / HEMOGLOBIN / LEUKOCYTE COUNT / LYMPHOCYTE / MEAN CORPUSCULAR HEMOGLOBIN / MEAN CORPUSCULAR HEMOGLOBIN CONCENTRATION / MEAN CORPUSCULAR VOLUME / MONOCYTE / NEUTROPHIL / PLATELET COUNT: tissue Blood; for ALANINE AMINOTRANSFERASE / ALBUMIN / ALKALINE PHOSPHATASE / ASPARTATE AMINOTRANSFERASE / BLOOD UREA NITROGEN / CHLORIDE / CHOLESTEROL / CREATINE PHOSPHOKINASE / CREATININE / GLUCOSE / PHOSPHORUS / POTASSIUM / SODIUM / TOTAL BILIRUBIN / TOTAL PROTEIN: tissue Plasma
[1] = 0 mg/kg, 72 h, dose level Control, time 3 day
[2] = 0 mg/kg, 120 h, dose level Control, time 5 day
[3] = 570 mg/kg, 72 h, dose level High, time 3 day
[4] = 570 mg/kg, 120 h, dose level High, time 5 day

With COc1ccc2c(c1OC)C(=O)O[C@@H]2[C@H]1c2c(cc3c(c2OC)OCO3)CCN1C [NOSCAPINE] the BASOPHIL [1] was 0.68%, the EOSINOPHIL [1] was 0.46% and the “ERYTHROCYTE COUNT” value [1] was 7.15 x10E6/uL. For the same compound, the HEMATOCRIT [1] was 45.44%, the HEMOGLOBIN [1] was 14.1 G/DL and the “LEUKOCYTE COUNT” value [1] was 9.78 x10E3/uL. For the same compound, the LYMPHOCYTE [1] was 84.44%, the “MEAN CORPUSCULAR HEMOGLOBIN” value [1] was 19.72 pg and the “MEAN CORPUSCULAR HEMOGLOBIN CONCENTRATION” value [1] was 31 G/DL. The “MEAN CORPUSCULAR VOLUME” value [1] was 63.66 fL, the MONOCYTE [1] was 2.14% and the NEUTROPHIL [1] was 11.16%. The “PLATELET COUNT” value [1] was 1378.2 x10E3/uL, the “ALANINE AMINOTRANSFERASE” value [1] was 42.33 u/L and the ALBUMIN [1] was 3.8 G/DL. For the same compound, the “ALKALINE PHOSPHATASE” value [1] was 388.17 u/L, the “ASPARTATE AMINOTRANSFERASE” value [1] was 68 u/L and the “BLOOD UREA NITROGEN” value [1] was 16.17 mg/dL. The CHLORIDE [1] was 96.67 MEQ/L, the CHOLESTEROL [1] was 71 mg/dL and the “CREATINE PHOSPHOKINASE” value [1] was 156.17 u/L. It also gave a CREATININE [1] of 0.57 mg/dL, a GLUCOSE [1] of 193.67 mg/dL and a PHOSPHORUS [1] of 11.43 mg/dL. The POTASSIUM [1] was 7 MEQ/L, the SODIUM [1] was 140.33 MEQ/L and the “TOTAL BILIRUBIN” value [1] was 0.48 mg/dL. For the same compound, the “TOTAL PROTEIN” value [1] was 6.8 G/DL, the BASOPHIL [2] was 1.47% and the EOSINOPHIL [2] was 1%. The “ERYTHROCYTE COUNT” value [2] was 7.12 x10E6/uL, the HEMATOCRIT [2] was 45.47% and the HEMOGLOBIN [2] was 14.1 G/DL. The “LEUKOCYTE COUNT” value [2] was 11.38 x10E3/uL, the LYMPHOCYTE [2] was 82.57% and the “MEAN CORPUSCULAR HEMOGLOBIN” value [2] was 19.82 pg. The “MEAN CORPUSCULAR HEMOGLOBIN CONCENTRATION” value [2] was 31.02 G/DL, the “MEAN CORPUSCULAR VOLUME” value [2] was 63.88 fL and the MONOCYTE [2] was 2.2%. The NEUTROPHIL [2] was 11.97%, the “PLATELET COUNT” value [2] was 1267 x10E3/uL and the “ALANINE AMINOTRANSFERASE” value [2] was 38 u/L. The ALBUMIN [2] was 3.72 G/DL, the “ALKALINE PHOSPHATASE” value [2] was 391 u/L and the “ASPARTATE AMINOTRANSFERASE” value [2] was 65.83 u/L. The “BLOOD UREA NITROGEN” value [2] was 14.17 mg/dL, the CHLORIDE [2] was 107.67 MEQ/L and the CHOLESTEROL [2] was 61 mg/dL. For the same compound, the “CREATINE PHOSPHOKINASE” value [2] was 148.33 u/L, the CREATININE [2] was 0.57 mg/dL and the GLUCOSE [2] was 177.17 mg/dL. The PHOSPHORUS [2] was 12.07 mg/dL, the POTASSIUM [2] was 7.2 MEQ/L and the SODIUM [2] was 151.5 MEQ/L. For the same compound, the “TOTAL BILIRUBIN” value [2] was 0.58 mg/dL, the “TOTAL PROTEIN” value [2] was 6.72 G/DL and the BASOPHIL [3] was 0.35%. The EOSINOPHIL [3] was 0.35%, the “ERYTHROCYTE COUNT” value [3] was 7.71 x10E6/uL and the HEMATOCRIT [3] was 48.95%. For the same compound, the HEMOGLOBIN [3] was 15.2 G/DL, the “LEUKOCYTE COUNT” value [3] was 9.57 x10E3/uL and the LYMPHOCYTE [3] was 82.8%. The “MEAN CORPUSCULAR HEMOGLOBIN” value [3] was 19.7 pg, the “MEAN CORPUSCULAR HEMOGLOBIN CONCENTRATION” value [3] was 31.05 G/DL and the “MEAN CORPUSCULAR VOLUME” value [3] was 63.4 fL. The MONOCYTE [3] was 3.35%, the NEUTROPHIL [3] was 12% and the “PLATELET COUNT” value [3] was 1473 x10E3/uL. The “ALANINE AMINOTRANSFERASE” value [3] was 27.5 u/L, the ALBUMIN [3] was 3.9 G/DL and the “ALKALINE PHOSPHATASE” value [3] was 381.5 u/L. For the same compound, the “ASPARTATE AMINOTRANSFERASE” value [3] was 56 u/L, the “BLOOD UREA NITROGEN” value [3] was 17.5 mg/dL and the CHLORIDE [3] was 96 MEQ/L. For the same compound, the CHOLESTEROL [3] was 131 mg/dL, the “CREATINE PHOSPHOKINASE” value [3] was 176 u/L and the CREATININE [3] was 0.45 mg/dL. The GLUCOSE [3] was 166 mg/dL, the PHOSPHORUS [3] was 12.8 mg/dL and the POTASSIUM [3] was 6.5 MEQ/L. For the same compound, the SODIUM [3] was 140.5 MEQ/L, the “TOTAL BILIRUBIN” value [3] was 0.55 mg/dL and the “TOTAL PROTEIN” value [3] was 7.25 G/DL. For the same compound, the BASOPHIL [4] was 1.17%, the EOSINOPHIL [4] was 0.53% and the “ERYTHROCYTE COUNT” value [4] was 7.1 x10E6/uL. For the same compound, the HEMATOCRIT [4] was 42.8%, the HEMOGLOBIN [4] was 13.67 G/DL and the “LEUKOCYTE COUNT” value [4] was 9.28 x10E3/uL. For the same compound, the LYMPHOCYTE [4] was 75.47%, the “MEAN CORPUSCULAR HEMOGLOBIN” value [4] was 19.27 pg and the “MEAN CORPUSCULAR HEMOGLOBIN CONCENTRATION” value [4] was 31.97 G/DL. For the same compound, the “MEAN CORPUSCULAR VOLUME” value [4] was 60.33 fL, the MONOCYTE [4] was 2.07% and the NEUTROPHIL [4] was 19.87%. For the same compound, the “PLATELET COUNT” value [4] was 1766.33 x10E3/uL, the “ALANINE AMINOTRANSFERASE” value [4] was 36 u/L and the ALBUMIN [4] was 3.7 G/DL. The “ALKALINE PHOSPHATASE” value [4] was 318.5 u/L, the “ASPARTATE AMINOTRANSFERASE” value [4] was 57 u/L and the “BLOOD UREA NITROGEN” value [4] was 13.5 mg/dL. For the same compound, the CHLORIDE [4] was 106 MEQ/L, the CHOLESTEROL [4] was 100 mg/dL and the “CREATINE PHOSPHOKINASE” value [4] was 142 u/L. It also gave a CREATININE [4] of 0.45 mg/dL, a GLUCOSE [4] of 188 mg/dL and a PHOSPHORUS [4] of 12.45 mg/dL. For the same compound, the POTASSIUM [4] was 7 MEQ/L, the SODIUM [4] was 149 MEQ/L and the “TOTAL BILIRUBIN” value [4] was 0.2 mg/dL. The “TOTAL PROTEIN” value [4] was 6.75 G/DL.
